The test system of the assay is human stomach cancer cell line SNU-16 xenograft. Description: Antitumor effect in SNU-16 subcutaneous xenograft model in mice. It counts as in vivo. To be noted: oral, once a day for 11 days, tumor volume last day. From the text: Human stomach cancer cell line SNU-16, which had been cultured in an RPMI-1640 medium containing 10% FBS, and penicillin and streptomycin, were adjusted to a concentration of 1×10^8 cells/mL with Hanks' Balanced Salt Solution (GIBCO #24020) to prepare a cell suspension, and the suspension was mixed with […] (BD Biosciences, Cat#354234) in a ratio of 1:1 to prepare a cell suspension in a concentration of 5×10^7 cells/ml. The cell suspension was inoculated in a volume of 100 ut into a subcutaneous part of a right flank of nude mice, 6 to 7 weeks of ages (BALB/cAiel-nu/nu, female, Clea Japan Inc.). Seven days after cell inoculation, the shortest diameter and the longest diameter of a tumor in each mouse were measured by using an electronic digital caliper (Digimatie™ caliper, Mitutoyo Corporation), so as to calculate the volume of the tumor in accordance with the following calculation formula: Tumor volume(mm^3)Longest diameter(mm)×Shortest diameter(mm)×Shortest diameter(mm)/2
On the basis of the volumes of tumors obtained on the first day of administration, the nude mice were grouped such that averages of the tumor volumes were substantially equal among the groups. Each test substance was dissolved in DMSO, Tween 80 was added thereto to prepare a solution in a 10-fold concentration and the thus prepared solution was stored at the freezer before use. Immediately before the administration, the stock solution was diluted with a 5% glucose solution to obtain a final administration solution (in which a ratio in % among DMSO, Tween 80 and the 5% glucose solution was 3.5:6.5:90). Each evaluation sample was orally administered to test substance administration group at a volume of 0.4 mL per 20 g of body weight once a day continuously for 11 days, and in a control group, an administration solvent was orally administered under the same conditions. Incidentally, the experiment was conducted on groups each consisting of 5 mice.
With respect to each of the control group and test substance administration group, a ratio of the weight measured on the final day to the weight measured on the first day (relative body weight: RBW) was calculated. If a ratio of the RBW of the test substance administration group/the RBW of the control group is 0.9 or mom, the corresponding test substance administration group was defined as a well-tolerated. In the test substance administration group thus defined as well-tolerated, a ratio of the tumor volume of the test substance-dosing group to the tumor volume of the control group obtained on the last day (TIC) (%) was calculated, and shown in Table 21.

Data on one molecule can be found in patent publication US8933099B2, “Monocyclic pyridine derivative” (Eisai R&D Management Co., Ltd., priority 2013, dated 2015).

Take `CNC(=O)n1ccc2cc(Oc3ccnc(NC(=O)c4ccc(C5CCN(CCO)CC5)cc4)c3)c(OCCOC)cc21` [Example 22, 5-((2-(4-(1-(2-Hydroxyethyl)piperidin-4-yl)benzamide)pyridin-4-yl)oxy)-6-(2-methoxyethoxy)-N-methyl-1H-indole-1-carboxamide]: the “T/C (%)” value (6.25 mg/kg) was 49%, the “T/C (%)” value (12.5 mg/kg) was 26%, the “T/C (%)” value (25 mg/kg) came to 17% and the “T/C (%)” value (50 mg/kg) is reported as 18%.
